# Data from PubChem BioAssay AID1745844 (Carcinogenic Potency Database (CPDB), 2022).
# The source made the active and inactive calls. How the calls were made is not given here.
# System: rodent lifetime carcinogenesis bioassay, tumor incidence TD50
# Assay: chronic cancer bioassays in animals – CPDB, compiled studies (AID 1745844)
smiles,measurement,setting,value
ClC(Cl)Br,TD50,"mouse, strain B6C3F1, females, by gavage, site: any site (literature study), lesion: several types, types named in the paper, dosed 102 weeks, study length 105 weeks",62.9 mg/kg/day
same,TD50,"mouse, strain B6C3F1, females, by gavage, site: liver, lesion: hepatocellular adenoma + hepatocellular carcinoma + neoplastic nodule, dosed 102 weeks, study length 105 weeks",28.9 mg/kg/day
same,TD50,"mouse, strain B6C3F1, females, by gavage, site: liver, lesion: hepatocellular adenoma + hepatocellular carcinoma, dosed 102 weeks, study length 105 weeks",28.9 mg/kg/day
same,TD50,"mouse, strain B6C3F1, females, by gavage, site: liver, lesion: hepatocellular adenoma, dosed 102 weeks, study length 105 weeks",36 mg/kg/day
same,TD50,"mouse, strain B6C3F1, females, by gavage, site: liver, lesion: hepatocellular carcinoma, dosed 102 weeks, study length 105 weeks",144 mg/kg/day
same,TD50,"mouse, strain B6C3F1, females, by gavage, site: lung, lesion: alveolar/bronchiolar adenoma + alveolar/bronchiolar carcinoma, dosed 102 weeks, study length 105 weeks",644 mg/kg/day
same,TD50,"mouse, strain B6C3F1, females, by gavage, site: multiple organs + spleen, lesion: malignant lymphoma, histiocytic type, dosed 102 weeks, study length 105 weeks",132 mg/kg/day
same,TD50,"mouse, strain B6C3F1, males, by gavage, site: kidney, lesion: tubular-cell adenocarcinoma, dosed 102 weeks, study length 104 weeks",336 mg/kg/day
same,TD50,"mouse, strain B6C3F1, males, by gavage, site: kidney, lesion: tubular-cell adenoma + tubular-cell adenocarcinoma, dosed 102 weeks, study length 104 weeks",137 mg/kg/day
same,TD50,"mouse, strain B6C3F1, males, by gavage, site: kidney, lesion: tubular-cell adenoma, dosed 102 weeks, study length 104 weeks",215 mg/kg/day
same,TD50,"mouse, strain B6C3F1, males, by gavage, site: multiple organs, lesion: malignant lymphoma, lymphocytic type, dosed 102 weeks, study length 104 weeks",74.2 mg/kg/day
same,TD50,"rat, strain Fischer 344, females, by gavage, site: colon + kidney, lesion: adenocarcinoma, NOS + adenomatous polyp, NOS + tubular-cell adenoma + tubular-cell adenocarcinoma, dosed 102 weeks, study length 104 weeks",84.8 mg/kg/day
same,TD50,"rat, strain Fischer 344, females, by gavage, site: colon, lesion: adenocarcinoma, NOS + adenomatous polyp, NOS, dosed 102 weeks, study length 104 weeks",200 mg/kg/day
same,TD50,"rat, strain Fischer 344, females, by gavage, site: colon, lesion: adenocarcinoma, NOS, dosed 102 weeks, study length 104 weeks",411 mg/kg/day
same,TD50,"rat, strain Fischer 344, females, by gavage, site: colon, lesion: adenomatous polyp, NOS, dosed 102 weeks, study length 104 weeks",364 mg/kg/day
same,TD50,"rat, strain Fischer 344, females, by gavage, site: kidney, lesion: tubular-cell adenocarcinoma, dosed 102 weeks, study length 104 weeks",272 mg/kg/day
same,TD50,"rat, strain Fischer 344, females, by gavage, site: kidney, lesion: tubular-cell adenoma + tubular-cell adenocarcinoma, dosed 102 weeks, study length 104 weeks",143 mg/kg/day
same,TD50,"rat, strain Fischer 344, females, by gavage, site: kidney, lesion: tubular-cell adenoma, dosed 102 weeks, study length 104 weeks",351 mg/kg/day
same,TD50,"rat, strain Fischer 344, males, by gavage, site: any site (literature study), lesion: several types, types named in the paper, dosed 102 weeks, study length 104 weeks",267 mg/kg/day
same,TD50,"rat, strain Fischer 344, males, by gavage, site: colon + kidney + rectum, lesion: adenocarcinoma, NOS + adenomatous polyp, NOS + tubular-cell adenoma + tubular-cell adenocarcinoma, dosed 102 weeks, study length 104 weeks",30.3 mg/kg/day
same,TD50,"rat, strain Fischer 344, males, by gavage, site: colon + rectum, lesion: adenocarcinoma, NOS + adenomatous polyp, NOS, dosed 102 weeks, study length 104 weeks",30.7 mg/kg/day
same,TD50,"rat, strain Fischer 344, males, by gavage, site: colon + rectum, lesion: adenocarcinoma, NOS, dosed 102 weeks, study length 104 weeks",35.6 mg/kg/day
same,TD50,"rat, strain Fischer 344, males, by gavage, site: colon + rectum, lesion: adenomatous polyp, NOS, dosed 102 weeks, study length 104 weeks",55.6 mg/kg/day
same,TD50,"rat, strain Fischer 344, males, by gavage, site: kidney, lesion: tubular-cell adenocarcinoma, dosed 102 weeks, study length 104 weeks",213 mg/kg/day
same,TD50,"rat, strain Fischer 344, males, by gavage, site: kidney, lesion: tubular-cell adenoma + tubular-cell adenocarcinoma, dosed 102 weeks, study length 104 weeks",152 mg/kg/day
same,TD50,"rat, strain Fischer 344, males, by gavage, site: kidney, lesion: tubular-cell adenoma, dosed 102 weeks, study length 104 weeks",583 mg/kg/day
same,TD50,"rat, strain Fischer 344, males, by gavage, site: liver, lesion: hepatocellular adenoma + hepatocellular carcinoma + neoplastic nodule, dosed 102 weeks, study length 104 weeks",747 mg/kg/day
same,TD50,"rat, strain Fischer 344, males, by gavage, site: lung, lesion: alveolar/bronchiolar adenoma + alveolar/bronchiolar carcinoma, dosed 102 weeks, study length 104 weeks",366 mg/kg/day
same,TD50,"rat, strain Fischer 344, males, by gavage, site: lung, lesion: alveolar/bronchiolar adenoma, dosed 102 weeks, study length 104 weeks",447 mg/kg/day
same,TD50,"rat, strain Fischer 344, males, by gavage, site: tunica vaginalis, lesion: mesothelioma, NOS, dosed 102 weeks, study length 104 weeks",350 mg/kg/day
same,TD50,"rat, strain Wistar, females, in drinking water, site: liver, lesion: neoplastic nodule, dosed 187 weeks, study length 187 weeks",544 mg/kg/day
same,TD50,"rat, strain Wistar, males, in drinking water, site: pituitary gland, lesion: one or several types, types not named, dosed 182 weeks, study length 182 weeks",911 mg/kg/day
CC(O)CN(N=O)C(=O)NCCCl (configuration not stated),TD50,"rat, strain Fischer 344, females, by gavage, site: all sites, lesion: mononuclear-cell leukemia, dosed 40 weeks, study length 95 weeks",0.962 mg/kg/day
same,TD50,"rat, strain Fischer 344, females, by gavage, site: liver, lesion: hepatocellular carcinoma, dosed 40 weeks, study length 95 weeks",8.81 mg/kg/day
same,TD50,"rat, strain Fischer 344, females, by gavage, site: liver, lesion: neoplastic nodule, dosed 40 weeks, study length 95 weeks",0.885 mg/kg/day
same,TD50,"rat, strain Fischer 344, females, by gavage, site: liver, lesion: several types, types named in the paper, dosed 40 weeks, study length 95 weeks",0.885 mg/kg/day
same,TD50,"rat, strain Fischer 344, males, by gavage, site: liver, lesion: hepatocellular carcinoma, dosed 35 weeks, study length 120 weeks",2.71 mg/kg/day
same,TD50,"rat, strain Fischer 344, males, by gavage, site: liver, lesion: neoplastic nodule, dosed 35 weeks, study length 120 weeks",1.17 mg/kg/day
same,TD50,"rat, strain Fischer 344, males, by gavage, site: liver, lesion: several types, types named in the paper, dosed 35 weeks, study length 120 weeks",0.861 mg/kg/day
same,TD50,"rat, strain Fischer 344, males, by gavage, site: lung, lesion: alveolar/bronchiolar tumor, dosed 35 weeks, study length 120 weeks",2.39 mg/kg/day
Cc1ccc2ccccc2c1,TD50,"mouse, strain B6C3F1, females, in feed, site: liver, lesion: hepatocellular adenoma, dosed 81 weeks, study length 81 weeks",6060 mg/kg/day
same,TD50,"mouse, strain B6C3F1, females, in feed, site: lung, lesion: several types, types named in the paper, dosed 81 weeks, study length 81 weeks",4010 mg/kg/day
same,TD50,"mouse, strain B6C3F1, males, in feed, site: lung, lesion: alveolar/bronchiolar adenoma, dosed 81 weeks, study length 81 weeks",735 mg/kg/day
same,TD50,"mouse, strain B6C3F1, males, in feed, site: lung, lesion: alveolar/bronchiolar carcinoma, dosed 81 weeks, study length 81 weeks",2780 mg/kg/day
same,TD50,"mouse, strain B6C3F1, males, in feed, site: lung, lesion: several types, types named in the paper, dosed 81 weeks, study length 81 weeks",205 mg/kg/day
[Na+],TD50,"mouse, strain B6C3F1, females, in drinking water, site: liver, lesion: hyperplastic nodule, dosed 104 weeks, study length 104 weeks",1.33e+06 mg/kg/day
same,TD50,"mouse, strain B6C3F1, females, in drinking water, site: lung, lesion: papillary tumor, dosed 104 weeks, study length 104 weeks",4980 mg/kg/day
same,TD50,"mouse, strain B6C3F1, males, in drinking water, site: any site (literature study), lesion: several types, types named in the paper, dosed 104 weeks, study length 104 weeks",992 mg/kg/day
same,TD50,"mouse, strain B6C3F1, males, in drinking water, site: liver, lesion: hemangioma, dosed 104 weeks, study length 104 weeks",9550 mg/kg/day
same,TD50,"mouse, strain B6C3F1, males, in drinking water, site: liver, lesion: hyperplastic nodule, dosed 104 weeks, study length 104 weeks",5970 mg/kg/day
same,TD50,"mouse, strain B6C3F1, males, in drinking water, site: lung, lesion: papillary tumor, dosed 104 weeks, study length 104 weeks",3740 mg/kg/day
same,TD50,"rat, strain ACI, males, in feed, site: forestomach, lesion: papilloma, dosed 52 weeks, study length 52 weeks",2660 mg/kg/day
same,carcinogen call,"rat, strain F344/DuCrj, males, in feed, site: forestomach, lesion: one or several types, types not named, dosed 51 weeks, study length 52 weeks",negative (inactive)
same,carcinogen call,"rat, strain F344/DuCrj, males, in feed, site: stomach, glandular, lesion: one or several types, types not named, dosed 51 weeks, study length 52 weeks",negative (inactive)
same,TD50,"rat, strain Fischer 344, males, in feed, site: adrenal medulla, lesion: pheochromocytoma, dosed 104 weeks, study length 104 weeks",2980 mg/kg/day (inactive)
same,carcinogen call,"rat, strain Wistar, males, in feed, site: stomach, glandular, lesion: one or several types, types not named, dosed 82 weeks, study length 82 weeks",negative (inactive)
NNc1nc(-c2ccc(N)cc2)cs1,TD50,"mouse, strain Swiss, females, in feed, site: all sites, lesion: lymphocytic leukemia, dosed 46 weeks, study length 66 weeks",11.3 mg/kg/day
same,TD50,"mouse, strain Swiss, females, in feed, site: any site (literature study), lesion: several types, types named in the paper, dosed 46 weeks, study length 66 weeks",11.3 mg/kg/day
same,TD50,"rat, strain Sprague-Dawley, females, in feed, site: all sites, lesion: lymphoblastic lymphoma, dosed 46 weeks, study length 75 weeks",7.09 mg/kg/day
same,TD50,"rat, strain Sprague-Dawley, females, in feed, site: any site (literature study), lesion: several types, types named in the paper, dosed 46 weeks, study length 75 weeks",0.582 mg/kg/day
same,TD50,"rat, strain Sprague-Dawley, females, in feed, site: mammary gland, lesion: adenocarcinoma, dosed 46 weeks, study length 75 weeks",1.02 mg/kg/day
same,TD50,"rat, strain Sprague-Dawley, females, in feed, site: mammary gland, lesion: several types, types named in the paper, dosed 46 weeks, study length 75 weeks",1.03 mg/kg/day
